# Results from patent US20170275330A1, “POLYMORPHIC FORMS OF AN OXYSTEROL AND METHODS OF MAKING THEM” (Warsaw Orthopedic, Inc., priority 2016, published 2017).
# Assays:
# [1] = Karl-Fisher (KF) water determination of isolated solid; format: physicochemical; settings: for KF (water content determined by Karl Fischer water determination method): OXY133 sample, method/solvent system, processing point, temperature and time as in the table row; for KF (Wt %) water content of isolated solid: solid isolated from acetone/water slurry at 0, 10 or 25° C.
# From the text: Further, Table 8 below is a list of OXY133 polymorphs Forms A, B, C, D, E, F, G, H and I identified by a high performance liquid chromatography (HPLC) followed by charged aerosol detector (CAD) method. Table 4 also lists the starting products, the solvent system including solvent and anti-solvent, the temperature at which a polymorph was formed, the water content of the polymorph as determined by the Karl-Fisher (KF) method of water determination, and where available the yield and purity of the resulting polymorph.
# [2] = X-ray powder diffraction (XRPD) identification of the crystal form; format: physicochemical; settings: OXY133 sample, method/solvent system
# From the text: The many crystalline forms obtained by subjecting a slurry of OXY133 to different conditions of re-slurrying, recrystallizing from different solvent systems at different temperatures may be identified by many analytical methods, for example, XRPD, HPLC-CAD, DSC-TGA and others known in the art. In certain embodiments, the OXY133 polymorphs may be characterized, at least in part, by X-ray Powder Diffraction (XRPD). In particular, crystalline solids produce a distinctive diffraction pattern of peaks, represented in what is referred to as a diffractogram. The peak assignments for a given crystalline material, for example, degree 2θ values, may vary slightly, depending on the instrumentation used to obtain the diffractogram and certain other factors, for example, sample preparation. Nevertheless, these variations should not be more than +/−0.2 degrees 2θ and the relative spacing between the peaks in the diffractogram will always be the same, regardless of the instrumentation used or the method of sample preparation, and the like.
# The equipment utilized to collect the XRPD patterns depicted in FIGS. 2A-13B was a Bruker D8 Advance diffractometer using Cu radiation (40 kV, 25 mA) with a divergence slit of 0.3° (0.6 mm), wherein variable slits must be operated in fixed mode. The axial Soller slits, primary and secondary were each set at 2.5°. The anti-scatter slit was set at 0.3° (0.6 mm). The secondary monochromator anti-scatter slit was set at 1 mm and the detector slit at 0.1 mm. If a secondary monochromator is not used, then a suitable […] must be used, namely a Ni filter for Cu radiation. The linear detector LYNXEYE was set at 30 detector opening with the angle scanned from 2 to 45° 2Θ.
# physchem = settings: acetone, organic solvent or mixture, thermodynamic from solid
# [3] = Solubility of OXY133 Form B in organic solvents; settings: ambient temperature of about 20° C.
# [4] = for stability in the acetone/water solvent system: acetone/water slurry
# [5] = DSC/TGA (differential scanning calorimetry and thermo-gravimetric analysis); format: physicochemical; settings: isolated solid of Example 6
# Procedure: Differential scanning calorimetry (DSC) and thermo-gravimetric analysis (TGA) were also collected for some of the OXY133 polymorphs. The equipment utilized to collect the DSC/TGA data was a Mettler Toledo DSC 2 equipped with an aluminum 40 μL crimped pan with a pin hole and the ramp rate was 10° C./min. DSC/TGA thermograms identifying several OXY133 polymorphs are illustrated in FIGS. 20-25.
# [6] = Stability of the crystal form on drying in a vacuum oven; format: physicochemical; settings: drying at temperatures above about 20° C. to about 30° C.
# Procedure: 2.0 g anhydrous OXY133 was added to 10 mL isopropanol in a 100 mL polyblock reactor. The mixture was heated to 30° C. and then stirred at 30° C. for 45 minutes until the solids were dissolved completely. Acceptable heating temperatures ranged from 25° C. to 35° C. A polish filtration step can be added after dissolving the anhydrous OXY133. The mixture of anhydrous OXY133 and isopropanol was then cooled to 5° C. 20 mL of water was then added to the cooled mixture over 120 minutes at 5° C., resulting in the formation of a precipitate approximately one third of the way through the addition of water. The water addition can also be done in temperature ranges from about 0° C. to about 20° C. with no significant effect on the crystal structure. The resulting mixture of OXY133, isopropanol and water was then stirred at 5° C. for 18 hours. However, it is recommended that the resulting mixture could be mixed for at least 2 hours at 5° C. after the water addition was complete to ensure that all solids were precipitated from the solution. A white solid was collected by rapidly filtering the mixture and then washing the solid with 2.0 mL of an isopropanol:water mixture in a ratio of 1:2 v/v. The filtered and washed solids were then dried in a vacuum oven at 20′C. Acceptable temperatures for drying can range from about 20° C. to about 30′C.
# [7] = Table 8, processing point (slurry/solid/after drying), temperature and time as in the table row
# [8] = Table 9, processing point, temperature
SMILES,KF (water content determined by Karl Fischer water determination method) [1],KF (Wt %) water content of isolated solid [1],"Crystal Form (XRPD) [2, 7]","Crystal Form (XRPD) [2, 8]",other results
CCCCCC[C@](C)(O)[C@H]1CC[C@H]2[C@@H]3C[C@H](O)[C@H]4C[C@@H](O)CC[C@]4(C)[C@H]3CC[C@@]21C [Form 2891-9-3],3.83%,3.83 Wt %,Form A,Form A,
CCCCCC[C@](C)(O)[C@H]1CC[C@H]2[C@@H]3C[C@H](O)[C@H]4C[C@@H](O)CC[C@]4(C)[C@H]3CC[C@@]21C [Form B],,,,,solubility (physchem; 20 °C): ~10 mg/mL; solubility (physchem; 56 °C): ~80 mg/mL; solubility in isopropanol (IPA) ([3]; isopropanol): good; solubility in tetrahydrofuran ([3]; tetrahydrofuran): good
CCCCCC[C@](C)(O)[C@H]1CC[C@H]2[C@@H]3C[C@H](O)[C@H]4C[C@@H](O)CC[C@]4(C)[C@H]3CC[C@@]21C [Form C],,,,,stability in the acetone/water solvent system [4]: fairly stable; conversion from Form C to Form A or Form B ([4]; slurry stirred at about 20° C. in acetone/water): no conversion
CCCCCC[C@](C)(O)[C@H]1CC[C@H]2[C@@H]3C[C@H](O)[C@H]4C[C@@H](O)CC[C@]4(C)[C@H]3CC[C@@]21C [Form F],,,,,"stability in the acetone/water solvent system [4]: somewhat stable; conversion to any other polymorph forms ([4]; acetone/water system, stirred at about 20° C. or about 5° C.): would not convert"
"CCCCCC[C@](C)(O)[C@H]1CC[C@H]2[C@@H]3C[C@H](O)[C@H]4C[C@@H](O)CC[C@]4(C)[C@H]3CC[C@@]21C.O [OXY133 Monohydrate, (3S,5S,6S,8R,9S,10R,13S,14S,17S)-17-((S)-2-hydroxyoctan-2-yl)-10,13-dimethylhexadecahydro-1H-cyclopenta[a]phenanthrene-3,6-diol, monohydrate]",,,,,"KF water content ([1]; isolated solid of Example 6 (IPA/water 1:2, 5° C., dried at 20° C.)): 4.07%; DSC/TGA [5]: 4.76%; crystal form stability on drying [6]: slow conversion"
CCCCCC[C@](C)(O)[C@H]1CC[C@H]2[C@@H]3C[C@H](O)[C@H]4C[C@@H](O)CC[C@]4(C)[C@H]3CC[C@@]21C [Form 2891-10-3],4.02%,4.02 Wt %,Form A,Form A,
CCCCCC[C@](C)(O)[C@H]1CC[C@H]2[C@@H]3C[C@H](O)[C@H]4C[C@@H](O)CC[C@]4(C)[C@H]3CC[C@@]21C [Form 2891-8-3],3.25%,3.25 Wt %,Form A,Form A,
